Source: patent publication US8642067B2, “Methods and compositions for intraocular administration to treat ocular conditions” (Allergen, Inc., priority 2007, dated 2014)

Columns and labels:
in vivo = conditions: female, albino, rabbit
Experimental: Vitreous humor samples (n=4 eyes per timepoint) were collected at 0.5, 1, 2, 4, 8, and 12 hr postdose. The TKI concentration in the vitreous humor was determined using a liquid chromatography tandem mass spectrometry method (LC-MS/MS).

macula edema patient = test: Treatment of macular edema with intravitreal TKI composition (ETDRS visual acuity chart); format: in vivo, human; conditions: twelve months after first injection; 1 mg intravitreal every 4 months; high viscosity hyaluronate solution such as Example 13 formulation
Experimental: An obese patient with symptoms of diabetes presents with vision loss due to macula edema with central retinal vein occlusion and/or branch retinal vein occlusion. They receive intravitreal injection of 1 mg of a high viscosity TKI (polymeric hyaluronate based) solution containing COMPOUND F, such as the Example 13 formulation. Equivalent injections are made every 4 months.

SMILES	AUC(0-t) (in vivo)	C0 (in vivo)	Vd (in vivo)	clearance (in vivo)	half-life (in vivo)	improved best corrected visual acuity from baseline (ETDRS chart) (macula edema patient)
Nc1ccc2c(c1)/C(=C1\C(=O)Nc3ccc(Cl)cc31)OC2 [COMPOUND A, 3-(6-Amino-3H-isobenzofuran-1-ylidene)-5-chloro-1,3-dihydro-indol-2-one]	778 ng·h/mL	566 ng/mL	0.000705 L	0.00433 mL/min	2.59 h	
Cc1cc(C(=O)Nc2cccc(C#Cc3cncc(C(=O)N=S(C)(=O)c4ccc(CCC(=O)O)cc4)c3)c2)n(C)n1 (stereo not drawn) [COMPOUND F]						fifteen
